{"source": "the NIST ThermoML archive (doi:10.1016/j.fluid.2010.04.008)", "settings": "Liquid, Ebulliometric method (Recirculating still)", "note": "Numbers after ± are expanded uncertainties.", "data": [{"smiles": "C1COCCN1", "note": "[tetrahydro-1,4-oxazine]", "values": [{"measurement": "vapor or sublimation pressure", "setting": "356.46 K", "value": "22.57 ± 0.2", "unit": "kPa"}, {"measurement": "vapor or sublimation pressure", "setting": "359.12 K", "value": "24.96 ± 0.2", "unit": "kPa"}, {"measurement": "vapor or sublimation pressure", "setting": "361.7 K", "value": "27.47 ± 0.2", "unit": "kPa"}, {"measurement": "vapor or sublimation pressure", "setting": "364.05 K", "value": "30.02 ± 0.21", "unit": "kPa"}, {"measurement": "vapor or sublimation pressure", "setting": "366.23 K", "value": "32.49 ± 0.21", "unit": "kPa"}, {"measurement": "vapor or sublimation pressure", "setting": "368.27 K", "value": "34.95 ± 0.21", "unit": "kPa"}, {"measurement": "vapor or sublimation pressure", "setting": "370.28 K", "value": "37.52 ± 0.21", "unit": "kPa"}, {"measurement": "vapor or sublimation pressure", "setting": "372.11 K", "value": "40.01 ± 0.21", "unit": "kPa"}, {"measurement": "vapor or sublimation pressure", "setting": "373.84 K", "value": "42.47 ± 0.21", "unit": "kPa"}, {"measurement": "vapor or sublimation pressure", "setting": "375.53 K", "value": "45.01 ± 0.21", "unit": "kPa"}, {"measurement": "vapor or sublimation pressure", "setting": "377.1 K", "value": "47.47 ± 0.21", "unit": "kPa"}, {"measurement": "vapor or sublimation pressure", "setting": "378.63 K", "value": "49.95 ± 0.21", "unit": "kPa"}, {"measurement": "vapor or sublimation pressure", "setting": "380.12 K", "value": "52.51 ± 0.21", "unit": "kPa"}, {"measurement": "vapor or sublimation pressure", "setting": "381.51 K", "value": "54.94 ± 0.22", "unit": "kPa"}, {"measurement": "vapor or sublimation pressure", "setting": "382.87 K", "value": "57.53 ± 0.22", "unit": "kPa"}, {"measurement": "vapor or sublimation pressure", "setting": "384.16 K", "value": "59.98 ± 0.22", "unit": "kPa"}, {"measurement": "vapor or sublimation pressure", "setting": "385.48 K", "value": "62.51 ± 0.22", "unit": "kPa"}, {"measurement": "vapor or sublimation pressure", "setting": "386.71 K", "value": "65.04 ± 0.22", "unit": "kPa"}, {"measurement": "vapor or sublimation pressure", "setting": "387.9 K", "value": "67.54 ± 0.22", "unit": "kPa"}, {"measurement": "vapor or sublimation pressure", "setting": "389.05 K", "value": "69.99 ± 0.22", "unit": "kPa"}, {"measurement": "vapor or sublimation pressure", "setting": "390.19 K", "value": "72.56 ± 0.22", "unit": "kPa"}, {"measurement": "vapor or sublimation pressure", "setting": "391.28 K", "value": "75.03 ± 0.22", "unit": "kPa"}, {"measurement": "vapor or sublimation pressure", "setting": "392.32 K", "value": "77.49 ± 0.23", "unit": "kPa"}, {"measurement": "vapor or sublimation pressure", "setting": "393.36 K", "value": "80.02 ± 0.23", "unit": "kPa"}, {"measurement": "vapor or sublimation pressure", "setting": "394.38 K", "value": "82.52 ± 0.23", "unit": "kPa"}, {"measurement": "vapor or sublimation pressure", "setting": "395.33 K", "value": "85.07 ± 0.23", "unit": "kPa"}, {"measurement": "vapor or sublimation pressure", "setting": "396.32 K", "value": "87.48 ± 0.23", "unit": "kPa"}, {"measurement": "vapor or sublimation pressure", "setting": "397.26 K", "value": "90.03 ± 0.23", "unit": "kPa"}, {"measurement": "vapor or sublimation pressure", "setting": "398.15 K", "value": "92.46 ± 0.23", "unit": "kPa"}, {"measurement": "vapor or sublimation pressure", "setting": "399.11 K", "value": "95.07 ± 0.24", "unit": "kPa"}, {"measurement": "vapor or sublimation pressure", "setting": "399.93 K", "value": "97.49 ± 0.24", "unit": "kPa"}, {"measurement": "vapor or sublimation pressure", "setting": "400.78 K", "value": "100.01 ± 0.24", "unit": "kPa"}, {"measurement": "vapor or sublimation pressure", "setting": "401.24 K", "value": "101.32 ± 0.24", "unit": "kPa"}]}]}
